Patent US8536164B2, “Fused pyridine compounds as casein kinase inhibitors” (Pfizer Inc., priority 2010, dated 2013)

Tests used:
[1] = molecular target: CKIδ wild type (Homo sapiens, UniProt P48730); assay: CK1δ kinase assay (Kinase-Glo); assay type: biochemical; conditions: 10 μM ATP, 2 nM CKIδ, 85 min at 25° C.; read-out: CK1 δ IC50
Experimental: (§1) The CK1δ kinase assay was performed in a 40 μl final volume in buffer containing 50 mM Tris, pH 7.5, 10 mM MgCl2, 1 mM dithiothreitol, 100 μg/mL BSA with 10 μM ATP, 2 nM CKIδ wild type, and 42 μM peptide substrate PLSRTLp[…] (Flotow et al., 1990) in the presence of 1 μl of CKIδ inhibitor or 4% DMSO. The reaction was incubated for 85 min at 25° C.; detection was carried out as described for the Kinase-Glo Assay (Promega). Luminescent output was measured on the Perkin Elmer Envision plate reader (PerkinElmer, Waltham, Mass.).

[2] = molecular target: CKI ε wild type (Homo sapiens, UniProt P49674); assay: CK1ε kinase assay (Kinase-Glo); assay type: biochemical; conditions: 10 μM ATP, 2.5 nM CKI ε, 70 min at 25° C.; read-out: CK1 ε:IC50
Experimental: as §1, with “The CK1ε” for “The CK1δ”, “a 40-μl” for “a 40 μl”, “ATP, 2.5” for “ATP, 2”, “nM CKI ε” for “nM CKIδ”, “of CKI ε” for “of CKIδ”, “for 70” for “for 85”

[3] = molecular target: T1, human CK1δ (Cos 7 cells cotransfected with mouse Per3-GFP) (Homo sapiens, UniProt P48730); assay: CK1 WCA HCS nuclear translocation assay (CK1δ); assay type: cell-based; conditions: inhibition of mPer3-GFP translocation to the nucleus, overnight exposure, read-out: CK1 δ WCA EC50
T1 construct: His tag of the vector pcDNA4/hisA (only the vector name is printed); expressed in transfected cells; host or cells: Cos 7 cells
Experimental: CK1 WCA HCS Nuclear Translocation Assay.
Cos 7 cells were maintained at 37° C. in 5% CO2 in Dulbecco's Modified Eagle Medium (Gibco 11995) supplemented with 10% fetal bovine serum. Log-phase cells were dislodged with 5 min treatment of TrypLE Express (Gibco 12605) and viable cell count was determined with Cedex cell counter. Cells were diluted in DMEM medium to a density of 1.5e5 viable cells/mL in ⅔ of the final volume of final transfected cell mix. Cells were cotransfected with two plasmid DNAs, mouse Per3-GFP (green fluorescent protein) in pd2EGFP-N1 vector and human CKI in pcDNA4/hisA vector (for CK1Epsilon at a ratio of 1:5 respectively; for CK1δ at a ratio of 1:11 respectively), using Lipofectamine 2000 reagent (Invitrogen) according to the manufacturer's recommendations. The transfection mix contained approximately 0.83 μg/mL of DNA and 6 μL/mL of Lipofectamine 2000, in a total of ⅓ of the final transfection volume in Opti-MEM I medium (Invitrogen). After 20 min at rt, the cell mix was combined with the DNA transfection mix, per manufacturer instructions. 50 μL of the transfected cell suspension was dispensed per well by multidrop dispenser into Greiner 384-well Cellcoat (PDL) plates (Greiner #781946).
Compounds were solubilized in 100% DMSO, diluted with Opti-MEM I to a 4× concentration before addition to plated cells. After overnight exposure at 37° C. in a CO2 incubator, cells were fixed by the addition of 12% paraformaldehyde (Electron Microscopy Sciences, Hatfield, Pa.) in phosphate-buffered saline (PBS) with 20% sucrose to a final concentration of 4%, and then the cells were incubated for 30 min at rt. Fixative was removed, and cells were washed with PBS and then stained with 0.4 μg/ml Hoechst dye (Invitrogen) in blocking buffer containing 4% goat serum (Vector Labs s-1000) and 0.1% TritonX (Sigma T8787) for 1 h. Cells were washed again with PBS and stored at 4° C. in PBS or scanned immediately with the Cellomics ArrayScan VTI. CKIδ dependent nuclear localization of the GFP-tagged mPer3 protein was quantitated using the Cellomics ArrayScan VTI system utilizing the Cytoplasm to Nucleus translocation bioapplication to calculate the Nuclear-Cytoplasmic Intensity difference. Inhibitors of CK1 δ/ε were tested across a dose response curve to evaluate their ability to inhibit mPer3-GFP translocation to the nucleus. Cells with a total intensity of mPER3:GFP expression equal to or greater than 20,000 are included in analysis.

Chain of CKI ε wild type (P49674 whole entry): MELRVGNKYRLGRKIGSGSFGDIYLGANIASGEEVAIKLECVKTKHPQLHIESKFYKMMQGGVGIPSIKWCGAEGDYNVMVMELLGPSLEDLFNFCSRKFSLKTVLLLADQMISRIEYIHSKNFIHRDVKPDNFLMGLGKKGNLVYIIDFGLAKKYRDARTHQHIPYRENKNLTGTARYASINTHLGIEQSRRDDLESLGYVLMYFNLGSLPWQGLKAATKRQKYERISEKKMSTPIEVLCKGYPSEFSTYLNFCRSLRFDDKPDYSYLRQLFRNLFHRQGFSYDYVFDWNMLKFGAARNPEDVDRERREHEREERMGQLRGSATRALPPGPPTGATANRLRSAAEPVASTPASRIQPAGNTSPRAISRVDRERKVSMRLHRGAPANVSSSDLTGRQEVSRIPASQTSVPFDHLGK
T1 sequence (P48730 whole entry): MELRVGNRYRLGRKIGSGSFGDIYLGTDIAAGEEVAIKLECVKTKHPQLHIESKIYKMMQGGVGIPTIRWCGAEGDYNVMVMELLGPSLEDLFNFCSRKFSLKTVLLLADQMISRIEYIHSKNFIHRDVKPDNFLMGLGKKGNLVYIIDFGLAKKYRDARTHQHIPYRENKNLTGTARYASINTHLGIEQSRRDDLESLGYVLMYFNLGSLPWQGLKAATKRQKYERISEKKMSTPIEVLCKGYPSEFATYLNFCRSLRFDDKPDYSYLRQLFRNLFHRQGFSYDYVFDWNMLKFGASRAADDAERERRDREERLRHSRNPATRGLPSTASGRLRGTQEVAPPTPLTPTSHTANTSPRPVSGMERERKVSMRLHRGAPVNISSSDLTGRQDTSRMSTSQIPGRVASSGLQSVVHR
Chain of CKIδ wild type (P48730 whole entry): as above

IC50 [1] | IC50 [2] | EC50 [3] | SMILES
0.061 µM | 0.292 µM | 0.204 µM | Cn1cc(-c2ccnc3c2CN(Cc2ccccc2)C3)c(-c2ccc(F)cc2)n1 [Example 6, 6-benzyl-4-[3-(4-fluorophenyl)-1-methyl-1H-pyrazol-4-yl]-6,7-dihydro-5H-pyrrolo[3,4-b]pyridine]
> 0.16 µM | > 0.423 µM | 0.0897 µM | CCC[C@@H](C)N1Cc2nccc(-c3cn(C)nc3-c3ccc(F)cc3)c2C1=O [Example 47, 4-[3-(4-fluorophenyl)-1-methyl-1H-pyrazol-4-yl]-6-[(1R)-1-methylbutyl]-6,7-dihydro-5H-pyrrolo[3,4-b]pyridin-5-one]
0.0213 µM | 0.145 µM | 0.0836 µM | Cn1cc(-c2ccnc3c2C(=O)N(Cc2cccnc2)C3)c(-c2ccc(F)cc2)n1 [Example 50, 4-[3-(4-fluorophenyl)-1-methyl-1H-pyrazol-4-yl]-6-(pyridin-3-ylmethyl)-6,7-dihydro-5H-pyrrolo[3,4-b]pyridin-5-one]
0.0285 µM | 0.149 µM | 0.266 µM | Cn1cc(-c2ccnc3c2CCC3O)c(-c2ccc(F)cc2)n1 (stereo not drawn) [Example 24, 4-[3-(4-fluorophenyl)-1-methyl-1H-pyrazol-4-yl]-6,7-dihydro-5H-cyclopenta[b]pyridin-7-ol]
0.0157 µM | 0.0864 µM | 0.0664 µM | Cc1cc(CN2Cc3nccc(-c4cn(C)nc4-c4ccc(F)cc4)c3C2=O)nn1C [Example 28, 6-[(1,5-dimethyl-1H-pyrazol-3-yl)methyl]-4-[3-(4-fluorophenyl)-1-methyl-1H-pyrazol-4-yl]-6,7-dihydro-5H-pyrrolo[3,4-b]pyridin-5-one]
0.0353 µM | 0.21 µM | 0.369 µM | Cn1cc(-c2ccnc3c2C(=O)N(CC2CCOC2)C3)c(-c2ccc(F)cc2)n1 (stereo not drawn) [Example 27, 4-[3-(4-fluorophenyl)-1-methyl-1H-pyrazol-4-yl]-6-(tetrahydrofuran-3-ylmethyl)-6,7-dihydro-5H-pyrrolo[3,4-b]pyridin-5-one]
0.0184 µM | 0.0807 µM | 0.13 µM | Cn1cc(-c2ccnc3c2C(=O)N(C24CC(C2)C4)C3)c(-c2ccc(F)cc2)n1 [Example 48, 6-bicyclo[1.1.1]pent-1-yl-4-[3-(4-fluorophenyl)-1-methyl-1H-pyrazol-4-yl]-6,7-dihydro-5H-pyrrolo[3,4-b]pyridin-5-one]
0.0205 µM | 0.108 µM | 0.0655 µM | Cn1cc(-c2ccnc3c2C(=O)N(Cc2cccc(C#N)c2)C3)c(-c2ccc(F)cc2)n1 [Example 41, 3-({4-[3-(4-fluorophenyl)-1-methyl-1H-pyrazol-4-yl]-5-oxo-5,7-dihydro-6H-pyrrolo[3,4-b]pyridin-6-yl}methyl)benzonitrile]
0.0495 µM | 0.241 µM | 0.188 µM | CC(C)CN1Cc2nccc(-c3cn(C)nc3-c3ccc(F)cc3)c2C1=O [Example 39, 4-[3-(4-fluorophenyl)-1-methyl-1H-pyrazol-4-yl]-6-isobutyl-6,7-dihydro-5H-pyrrolo[3,4-b]pyridin-5-one]
0.0195 µM | 0.087 µM | 0.167 µM | Cn1cc(-c2ccnc3c2C(=O)N([C@H]2[C@@H]4COC[C@@H]42)C3)c(-c2ccc(F)cc2)n1 [Example 45, 4-[3-(4-fluorophenyl)-1-methyl-1H-pyrazol-4-yl]-6-[(1R,5S,6r)-3-oxabicyclo[3.1.0]hex-6-yl]-6,7-dihydro-5H-pyrrolo[3,4-b]pyridin-5-one]
0.0687 µM | 0.384 µM | 1.43 µM | Cn1cc(-c2ccnc3c2C(=O)N([C@H]2CCOC2=O)C3)c(-c2ccc(F)cc2)n1 [Example 46, 4-[3-(4-fluorophenyl)-1-methyl-1H-pyrazol-4-yl]-6-[(3S)-2-oxotetrahydrofuran-3-yl]-6,7-dihydro-5H-pyrrolo[3,4-b]pyridin-5-one]
0.0186 µM | 0.092 µM | 0.0714 µM | Cc1noc(CCN2Cc3nccc(-c4cn(C)nc4-c4ccc(F)cc4)c3C2=O)n1 [Example 38, 4-[3-(4-fluorophenyl)-1-methyl-1H-pyrazol-4-yl]-6-[2-(3-methyl-1,2,4-oxadiazol-5-yl)ethyl]-6,7-dihydro-5H-pyrrolo[3,4-b]pyridin-5-one]
0.0673 µM | 0.386 µM | 0.623 µM | COCCN1Cc2nccc(-c3cn(C)nc3-c3ccc(F)cc3)c2C1=O [Example 42, 4-[3-(4-fluorophenyl)-1-methyl-1H-pyrazol-4-yl]-6-(2-methoxyethyl)-6,7-dihydro-5H-pyrrolo[3,4-b]pyridin-5-one]
0.0233 µM | 0.13 µM | 0.104 µM | Cc1c(CN2Cc3nccc(-c4cn(C)nc4-c4ccc(F)cc4)c3C2=O)cnn1C [Example 35, 6-[(1,5-dimethyl-1H-pyrazol-4-yl)methyl]-4-[3-(4-fluorophenyl)-1-methyl-1H-pyrazol-4-yl]-6,7-dihydro-5H-pyrrolo[3,4-b]pyridin-5-one]
0.0146 µM | 0.0638 µM | 0.129 µM | CCOCCCN1Cc2nccc(-c3cn(C)nc3-c3ccc(F)cc3)c2C1=O [Example 51, 6-(3-ethoxypropyl)-4-[3-(4-fluorophenyl)-1-methyl-1H-pyrazol-4-yl]-6,7-dihydro-5H-pyrrolo[3,4-b]pyridin-5-one]
0.0226 µM | 0.123 µM | 0.125 µM | Cn1cc(CN2Cc3nccc(-c4cn(C)nc4-c4ccc(F)cc4)c3C2=O)cn1 [Example 26, 4-[3-(4-fluorophenyl)-1-methyl-1H-pyrazol-4-yl]-6-[(1-methyl-1H-pyrazol-4-yl)methyl]-6,7-dihydro-5H-pyrrolo[3,4-b]pyridin-5-one]
0.00893 µM | 0.0408 µM | 0.0849 µM | Cn1cc(-c2ccnc3c2C(=O)N(C2CCCC2)C3)c(-c2ccc(F)cc2)n1 [Example 32, 6-cyclopentyl-4-[3-(4-fluorophenyl)-1-methyl-1H-pyrazol-4-yl]-6,7-dihydro-5H-pyrrolo[3,4-b]pyridin-5-one]
0.00605 µM | 0.039 µM | 0.0164 µM | Cn1cc(-c2ccnc3c2C(=O)N(Cc2ccccc2)C3)c(-c2ccc(F)cc2)n1 [Example 5, 6-benzyl-4-[3-(4-fluorophenyl)-1-methyl-1H-pyrazol-4-yl]-6,7-dihydro-5H-pyrrolo[3,4-b]pyridin-5-one]
0.0111 µM | 0.0471 µM | 0.0537 µM | Cn1cc(-c2ccnc3c2C(=O)N(CCC#N)C3)c(-c2ccc(F)cc2)n1 [Example 40, 3-{4-[3-(4-fluorophenyl)-1-methyl-1H-pyrazol-4-yl]-5-oxo-5,7-dihydro-6H-pyrrolo[3,4-b]pyridin-6-yl}propanenitrile]

SMILES | IC50 [1] | IC50 [2] | EC50 [3]
Cn1cc(-c2ccnc3c2C(=O)N(CCOC(C)(C)C)C3)c(-c2ccc(F)cc2)n1 [Example 30, 6-(2-tert-butoxyethyl)-4-[3-(4-fluorophenyl)-1-methyl-1H-pyrazol-4-yl]-6,7-dihydro-5H-pyrrolo[3,4-b]pyridin-5-one] | 0.0277 µM | 0.149 µM | 0.159 µM
